# Experiments:
# [1] = system: K562: human chronic myeloid leukemia cell strain; test: MTT cytotoxicity to tumor cell strains, K562; type: cell-based; details: for IC50: Homo sapiens, read-out: Cell activity (IC50, μg/ml) K562
# Description: (§1) The cytotoxicity of samples to tumor cell strains is determined through MTT.
# [2] = system: A549 (human lung adenocarcinoma cells); test: MTT cytotoxicity to tumor cell strains, A549; type: cell-based; details: for IC50: Homo sapiens, read-out: Cell activity (IC50, μg/ml) A549
# Description: as §1
# [3] = system: Hep3B2.1-7 human liver cancer cells; test: CCK-8 proliferation inhibition, Hep3B2.1-7; type: cell-based; details: CCK-8 method; for inhibition at 10 µM / inhibition at 100 µM: Homo sapiens, Hep3B
# Outline: (§2)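 Inhibition rates were obtained by CCK-8 assay after treating cells with each compound at 100 μM or 10 μM.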
# [4] = system: histone deacetylase; test: in vitro inhibition of histone deacetylase by HDAC inhibitor screening kit (Biovision K340-100); type: biochemical
# Description: An assay for determining the in vitro inhibition activity of the compound on histone deacetylase is conducted according to the specification of HDAC inhibitor screeing kid (Biovision Company/Catalog #K340-100). […]
# [5] = system: Colo320 human rectal cancer cells; test: CCK-8 proliferation inhibition, Colo320; type: cell-based; details: CCK-8 method; for inhibition at 10 µM / inhibition at 100 µM: Homo sapiens, COLO 320
# Outline: as §2
# [6] = system: A549 human lung cancer cells; test: CCK-8 proliferation inhibition, A549; type: cell-based; details: CCK-8 method; for inhibition at 10 µM / inhibition at 100 µM: Homo sapiens, A549
# Outline: as §2
# [7] = system: Jurkat E6-1 human T-cell lymphoma; test: CCK-8 proliferation inhibition, Jurkat E6-1; type: cell-based; details: for inhibition at 10 µM / inhibition at 100 µM: Homo sapiens; for inhibition at 10 µM: Jurkat E6.1, 10 μM; for inhibition at 100 µM: Jurkat E6.1, 100 μM
# Outline: as §2
# [8] = system: K562 human chronic myeloid leukemia cells; test: CCK-8 proliferation inhibition, K562; type: cell-based; details: for inhibition at 10 µM / inhibition at 100 µM: Homo sapiens; for inhibition at 10 µM: K562, 10 μM; for inhibition at 100 µM: K562, 100 μM
# Outline: as §2
# [9] = system: histone deacetylase; test: in vitro inhibition activity on histone deacetylase (rat liver homogenate, MAL fluorescent substrate); type: biochemical, rats; details: n = 4, 37° C., 16 hours
# Description: A 96-well plate (black) for determining […] is made by Costar Company of U.S. The histone deacetylase is obtained by homogenization of liver of rats. The histone deacetylase reacts with small molecular fluorescent substrate MAL such that the substrate MAL is deacetylated to become ML.
# The compound to be detected is dissolved with 200 μL of DMSO. The stock solution of the compound to be detected is diluted with PBS to a concentration of the working solution. The histone deacetylase, the MAL fluorescent substrate and the compound to be detected are mixed in a water bath at 37° C. and reacted 16 hours. The final concentration of the compound to be detected is: MS275 and its similar compound: 10, 100 μmol/.
# The reaction solution is extracted with ethyl acetate. The extract is pumped in vacuum and thereto added 110 μL of methanol (40%). Taking 50 μL/well to a 96-well plate and making a fluorescent detection at 325/390 nm.
# The negative control wherein histone deacetylase is not added to the reaction is 100% inhibition. The control that only contains histone deacetylase without any inhibitor is the background (0% inhibition). The inhibition rate of the sample to be detected=(the detected fluorescent value−the background)/(the fluorescent value of the negative control−background)×100%
# The inhibition rate and the standard deviation in the results are the average inhibition percentage and the standard deviation of each parallel well in each dosage group.
# [10] = system: Hut78 T-cell Leukemia cell; test: CCK-8 proliferation inhibition, Hut78; type: cell-based; details: for inhibition at 10 µM / inhibition at 100 µM: Homo sapiens, read-out: Hut-78 (inhibition %); for inhibition at 10 µM: HuT78, 10 μM; for inhibition at 100 µM: HuT78, 100 μM
# Outline: as §2
# [11] = system: MDA-MB-435s human breast cancer cells; test: CCK-8 proliferation inhibition, MDA-MB-435s; type: cell-based; details: CCK-8 method; for inhibition at 10 µM / inhibition at 100 µM: Homo sapiens, MDA-MB-435S
# Outline: as §2
# [12] = system: PC-3 human prostate cancer; test: CCK-8 proliferation inhibition, PC-3; type: cell-based; details: CCK-8 method; for inhibition at 10 µM / inhibition at 100 µM: Homo sapiens
# Outline: as §2
# [13] = system: PANC-1 human pancreatic cancer cells; test: CCK-8 proliferation inhibition, PANC-1; type: cell-based; details: for inhibition at 10 µM / inhibition at 100 µM: Homo sapiens; for inhibition at 10 µM: PANC-1, 10 μM; for inhibition at 100 µM: PANC-1, 100 μM
# Outline: as §2
# [14] = system: Hut 78 (T-cell Leukemia cell); test: MTT cytotoxicity to tumor cell strains, Hut 78; type: cell-based; details: Hut 78, MTT; for IC50: Homo sapiens, HuT78, read-out: Cell activity (IC50, μg/ml) Hut 78
# Description: as §1
smiles,measurement,setting,value
"Nc1ccccc1NC(=O)c1ccc(CNC(=O)OCc2cccnc2)cc1 [MS-275, reference compound]","Cell activity (IC50, μg/ml) K562",[1],3.20 µg/mL
same,"Cell activity (IC50, μg/ml) A549",[2],24.42 µg/mL
same,Hep3B (inhibition %),[3]; compound concentration 10 μM,10.8%
same,Hep3B (inhibition %),[3]; compound concentration 100 μM,52.1%
same,Inhibition rate(%),[4]; 3.91 μM,32.5%
same,Inhibition rate(%),[4]; 62.5 μM,60.5%
same,Inhibition rate(%),[4]; 2 mM,82.2%
same,Colo320 (inhibition %),[5]; compound concentration 10 μM,18.0%
same,Colo320 (inhibition %),[5]; compound concentration 100 μM,61.6%
same,A549 (inhibition %),[6]; compound concentration 10 μM,58.9%
same,A549 (inhibition %),[6]; compound concentration 100 μM,92.3%
same,Jurkat E6-1 (inhibition %),[7]; 10 μM,89.5%
same,Jurkat E6-1 (inhibition %),[7]; 100 μM,96.1%
same,K562 (inhibition %),[8]; 10 μM,66.2%
same,K562 (inhibition %),[8]; 100 μM,74.6%
same,inhibition rate % average number,[9]; dosage 10 μmol/L,45.588%
same,inhibition rate % average number,[9]; dosage 100 μmol/L,66.300%
same,Hut-78 (inhibition %),[10]; 10 μM,61.8%
same,Hut-78 (inhibition %),[10]; 100 μM,85.3%
same,435s(inhibition %),[11]; compound concentration 10 μM,2.7%
same,435s(inhibition %),[11]; compound concentration 100 μM,59.3%
same,PC-3 (inhibition %),[12]; compound concentration 10 μM,12.5%
same,PC-3 (inhibition %),[12]; compound concentration 100 μM,71.5%
same,PANC-1 (inhibition %),[13]; 10 μM,12.4%
same,PANC-1 (inhibition %),[13]; 100 μM,31.6%
same,"Cell activity (IC50, μg/ml) Hut 78",[14],0.15 µg/mL
"Nc1ncccc1NC(=O)c1ccc(CNC(=O)OCc2cccnc2)cc1 [V-4, N-(2-amino-3-pyridyl)-4-[(3-pyridylmethoxyacyl)aminomethyl]benzamide]",IC50,[1],> 100 µg/mL
same,IC50,[2],> 100 µg/mL
same,inhibition at 10 µM,[3]; compound concentration 10 μM,2.6%
same,inhibition at 100 µM,[3]; compound concentration 100 μM,37.4%
same,Inhibition rate(%),[4]; 3.91 μM,9.4%
same,Inhibition rate(%),[4]; 62.5 μM,19.8%
same,Inhibition rate(%),[4]; 2 mM,65.2%
same,inhibition at 10 µM,[5]; compound concentration 10 μM,33.2%
same,inhibition at 100 µM,[5]; compound concentration 100 μM,78.3%
same,inhibition at 10 µM,[6]; compound concentration 10 μM,50.6%
same,inhibition at 100 µM,[6]; compound concentration 100 μM,89.7%
same,inhibition at 10 µM,[7],48.5%
same,inhibition at 100 µM,[7],79.3%
same,inhibition at 10 µM,[8],22.4%
same,inhibition at 100 µM,[8],30.8%
same,inhibition rate % average number,[9]; dosage 10 μmol/L,1.644%
same,inhibition rate % average number,[9]; dosage 100 μmol/L,12.033%
same,inhibition at 10 µM,[10],36%
same,inhibition at 100 µM,[10],67.2%
same,inhibition at 10 µM,[11]; compound concentration 10 μM,26.7%
same,inhibition at 100 µM,[11]; compound concentration 100 μM,87.5%
same,inhibition at 10 µM,[12]; compound concentration 10 μM,79.5%
same,inhibition at 100 µM,[12]; compound concentration 100 μM,91.5%
same,inhibition at 10 µM,[13],40.2%
same,inhibition at 100 µM,[13],65.4%
same,IC50,[14],4.21 µg/mL
Nc1cnccc1NC(=O)c1ccc(CNC(=O)OCc2cccnc2)cc1 [V-5],IC50,[1],> 100 µg/mL
same,IC50,[2],> 100 µg/mL
same,inhibition at 10 µM,[3]; compound concentration 10 μM,31.2%
same,inhibition at 100 µM,[3]; compound concentration 100 μM,53.6%
same,Inhibition rate(%),[4]; 3.91 μM,7.6%
same,Inhibition rate(%),[4]; 62.5 μM,28.0%
same,Inhibition rate(%),[4]; 2 mM,77.1%
same,inhibition at 10 µM,[5]; compound concentration 10 μM,39.6%
same,inhibition at 100 µM,[5]; compound concentration 100 μM,92.9%
same,inhibition at 10 µM,[6]; compound concentration 10 μM,65.6%
same,inhibition at 100 µM,[6]; compound concentration 100 μM,84.8%
same,inhibition at 10 µM,[7],58.5%
same,inhibition at 100 µM,[7],85.9%
same,inhibition at 10 µM,[8],21%
same,inhibition at 100 µM,[8],64.4%
same,inhibition rate % average number,[9]; dosage 10 μmol/L,9.422%
same,inhibition rate % average number,[9]; dosage 100 μmol/L,37.240%
same,inhibition at 10 µM,[10],43.4%
same,inhibition at 100 µM,[10],72.8%
same,inhibition at 10 µM,[11]; compound concentration 10 μM,35.8%
same,inhibition at 100 µM,[11]; compound concentration 100 μM,86.9%
same,inhibition at 10 µM,[12]; compound concentration 10 μM,90.3%
same,inhibition at 100 µM,[12]; compound concentration 100 μM,92.4%
same,inhibition at 10 µM,[13],20.7%
same,inhibition at 100 µM,[13],74.1%
same,IC50,[14],0.4 µg/mL

# Reference: patent US8889876B2, “Histone deacetylase inhibitors and uses thereof” (Jiangsu Hengyi Pharmaceutical Co., Ltd., priority 2008, dated 2014)
